What is called melting point is the temperature, or range, at which the solid turns liquid. `Cn1ccc(-c2[nH]nc3c2C(=O)c2c(NC(=O)NN4CCOCC4)cccc2-3)c1` [Example CC, 3-(1-methyl-3-pyrrolyl)-5-(morpholinocarbamoylamino)indeno[1,2-c]pyrazol-4-one] had a melting point of 301 °C.

In turn, `CCOC(=O)c1ccc(-c2[nH]nc3c2C(=O)c2c(NC(=O)NN4CCC[C@@H]4COC)cccc2-3)s1` [Example CCI, 3-(5-carboethoxy-2-thienyl)-5-(2 (R)-(methoxymethyl)pyrrolidinocarbamoylamino)indeno[1,2-c]pyrazol-4-one] returned a melting point of 221 °C. The result for `CC(C)(C)OC(=O)NCCCC(=O)N1CCC(c2[nH]nc3c2C(=O)c2c(NC(=O)NN4CCOCC4)cccc2-3)CC1` [Example CCLXXVI, 3-(1-(3-(t-butoxycarbonylamino)propylcarbonyl)piperidin-4-yl)-5-(morpholinocarbamoylamino)indeno[1,2-c]pyrazol-4-one] reads 73 °C; that for `CC(C)(C)OC(=O)N1CCC(C(=O)N2CCC(c3[nH]nc4c3C(=O)c3c(NC(=O)NN5CCOCC5)cccc3-4)CC2)CC1` [Example CCLXXXI, 3-(1-((1-(t-butoxycarbonyl)piperidin-4-yl)carbonyl)piperidin-4-yl)-5-(morpholinocarbamoylamino)indeno[1,2-c]pyrazol-4-one], 220 °C; that for `CC(C)(C)OC(=O)N1CCCC(C(=O)N2CCC(c3[nH]nc4c3C(=O)c3c(NC(=O)NN5CCOCC5)cccc3-4)CC2)C1` (stereo not drawn) [Example CCLXXXIX, 3-(1(1-(t-butoxycarbonyl)piperidin-3-ylcarbonyl)piperidin-4-yl)-5-(morpholinocarbamoylamino)indeno[1,2-c]pyrazol-4-one], 196 °C. `CC(C)(C)OC(=O)N[C@H]1CC[C@H](C(=O)N2CCC(c3[nH]nc4c3C(=O)c3c(NC(=O)NN5CCOCC5)cccc3-4)CC2)CC1` [Example CCLXXXVI, 3-(1-(trans-4-(t-butoxycarbonylamino)cyclohexylcarbonyl)piperidin-4-yl)-5-(morpholinocarbamoylamino)indeno[1,2-c]pyrazol-4-one] gave a melting point of 178 °C.

`CC(C)(C)OC(=O)N1CCN(c2ccc(-c3[nH]nc4c3C(=O)c3c(NC(=O)NN5CCOCC5)cccc3-4)cc2)CC1` [Example CCX, 3-(4-(4-t-butoxycarbonylpiperazino)phenyl)-5-(morpholinocarbamoylamino)indeno[1,2-c]pyrazol-4-one] yielded a melting point of 242 °C.

As for `CC(C)(C)OC(=O)Nc1ccc(C(=O)N2CCC(c3[nH]nc4c3C(=O)c3c(NC(=O)NN5CCOCC5)cccc3-4)CC2)cc1` [Example CCXCIX, 3-(1-(4-(t-butoxycarbonylamino)phenylcarbonyl)piperidin-4-yl)-5-(morpholinocarbamoylamino)indeno[1,2-c]pyrazol-4-one], the melting point was determined as 212 °C.

The molecule `CC(C)(C)OC(=O)Nc1ccc(CC(=O)N2CCC(c3[nH]nc4c3C(=O)c3c(NC(=O)NN5CCOCC5)cccc3-4)CC2)cc1` [Example CCXCVI, 3-(1-(4-(t-butoxycarbonylamino)benzylcarbonyl)piperidin-4-yl)-5-(morpholinocarbamoylamino)indeno[1,2-c]pyrazol-4-one] showed a melting point of 177 °C. `NC(=O)Nc1cccc2c1C(=O)c1c-2n[nH]c1-c1csc(Cl)c1` [Example CI, 3-(5-chloro-3-thienyl)-5-(carbamoylamino)indeno[1,2-c]pyrazol-4-one] showed a melting point of more than 300 °C.

In turn, `Cc1cc(-c2[nH]nc3c2C(=O)c2c(NC(N)=O)cccc2-3)c(C)s1` [Example CII, 3-(2,5-dimethyl-3-thienyl)-5-(carbamoylamino)indeno[1,2-c]pyrazol-4-one] displayed a melting point of more than 280 °C. Turning to `NC(=O)Nc1cccc2c1C(=O)c1c-2n[nH]c1-c1ccco1` [Example CIII, 3-(2-furanyl)-5-(carbamoylamino)indeno[1,2-c]pyrazol-4-one], the melting point worked out at 278 °C.

Molecule `Cn1ccc(-c2[nH]nc3c2C(=O)c2c(NC(N)=O)cccc2-3)c1` [Example CXII, 3-(1-methyl-3-pyrrolyl)-5-(carbamoylamino)indeno[1,2-c]pyrazol-4-one] displayed a melting point of more than 300 °C. The result for `CC(C)c1[nH]nc2c1C(=O)c1c(NC(=O)CN3CCC(C(N)=O)CC3)cccc1-2` [Example CXV, 3-(i-propyl)-5-((4-carbamoylpiperidino)acetamido)indeno [1,2-c]pyrazol-4-one] reads 224 °C; that for `CCc1[nH]nc2c1C(=O)c1c(NC(=O)CN3CCC(CN)CC3)cccc1-2` [Example CXVII, 3-(ethyl)-5-(4-(aminomethyl)piperidinoacetamido)indeno [1,2-c]pyrazol-4-one], 174 °C.

As for `CC(C)c1[nH]nc2c1C(=O)c1c(NC(=O)CN3CCC(CN)CC3)cccc1-2` [Example CXVIII, 3-(i-propyl)-5-(4-(aminomethyl)piperidinoacetamido)indeno [1,2-c]pyrazol-4-one], the melting point came out at 218 °C. The result for `CC(C)c1[nH]nc2c1C(=O)c1c(NC(=O)NN3CCN(C)CC3)cccc1-2` [Example CXXI, 3-(i-propyl)-5-((4-methylpiperazino)carbamoylamino)indeno [1,2-c]pyrazol-4-one] reads 231 °C. For the molecule `CCOC(=O)c1ccc(-c2[nH]nc3c2C(=O)c2c(NC(=O)NN4CCN(C)CC4)cccc2-3)s1` [Example CXXII, 3-(5-carboethoxy-2-thienyl)-5-((4-methylpiperazino)carbamoylamino)indeno [1,2-c]pyrazol-4-one], the melting point is 249 °C. As to `CN1CCN(NC(=O)Nc2cccc3c2C(=O)c2c-3n[nH]c2-c2ccc(C(=O)O)s2)CC1` [Example CXXIII, 3-(5-carboxyl-2-thienyl)-5-((4-methylpiperazino)carbamoylamino)indeno [1,2-c]pyrazol-4-one], the melting point worked out at 270 °C. The result for `Cc1cc(-c2[nH]nc3c2C(=O)c2c(NC(=O)NN4CCN(C)CC4)cccc2-3)c(C)s1` [Example CXXIV, 3-(2,5-dimethyl-3-thienyl)-5-((4-methylpiperazino)carbamoylamino)indeno [1,2-c]pyrazol-4-one] reads 250 °C. As for `COc1ccc(-c2[nH]nc3c2C(=O)c2c(NC(C)=O)cccc2-3)cc1` [Example I, 3-(4-methoxyphenyl)-5-(acetamido)indeno[1,2-c]pyrazol-4-one], the figure is 268 °C. As for `COc1ccc(-c2[nH]nc3c2C(=O)c2c(NC(=O)C4CC4)cccc2-3)cc1` [Example III, 3-(4-methoxyphenyl)-5-(cyclopropanecarboxamido)indeno[1,2-c]pyrazol-4-one], the figure is 289 °C. `CCCC(=O)Nc1cccc2c1C(=O)c1c-2n[nH]c1-c1ccc(OC)cc1` [Example IX, 3-(4-methoxyphenyl)-5-(butanamido)indeno[1,2-c]pyrazol-4-one] showed a melting point of 282 °C. As for `O=CNc1cccc2c1C(=O)c1c-2n[nH]c1-c1ccncc1` [Example L, 3-(4-pyridyl)-5-(formamido)indeno [1,2-c]pyrazol-4-one], the figure is more than 300 °C; as for `CN(C)c1ccc(-c2[nH]nc3c2C(=O)c2c(NC(=O)CN4CCOCC4)cccc2-3)cc1` [Example LV, 3-(4-(N,N-dimethylamino)phenyl)-5-(morpholinoacetamido)indeno[1,2-c]pyrazol-4-one], more than 300 °C. The result for `CC(=O)Nc1cccc2c1C(=O)c1c-2n[nH]c1-c1ccc(N2CCOCC2)cc1` [Example LVIII, 3-(4-morpholinophenyl)-5-(acetamido)indeno[1,2-c]pyrazol-4-one] reads more than 300 °C.

The molecule `CCc1ccc(-c2[nH]nc3c2C(=O)c2c(NC(C)=O)cccc2-3)cc1` [Example LXI, 3-(4-ethylphenyl)-5-(acetamido)indeno[1,2-c]pyrazol-4-one] showed a melting point of 294 °C.

On to `COc1ccc(-c2[nH]nc3c2C(=O)c2c(NC(N)=O)cccc2-3)cc1` [Example LXIII, 3-(4-methoxyphenyl)-5-(carbamoylamino)indeno[1,2-c]pyrazol-4-one], for which the melting point was more than 300 °C. `CNC(=O)Nc1cccc2c1C(=O)c1c-2n[nH]c1-c1ccc(OC)cc1` [Example LXV, 3-(4-methoxyphenyl)-5-((methylcarbamoyl)amino)indeno[1,2-c]pyrazol-4-one] showed a melting point of more than 300 °C. As for `COc1ccc(-c2[nH]nc3c2C(=O)c2c(NC(=O)NN4CCOCC4)cccc2-3)cc1` [Example LXVI, 3-(4-methoxyphenyl)-5-((morpholinocarbamoyl)amino)indeno[1,2-c]pyrazol-4-one], the figure is more than 300 °C.

`COc1ccc(-c2[nH]nc3c2C(=O)c2c(NC(=O)NN4CCN(C)CC4)cccc2-3)cc1` [Example LXVIII, 3-(4-methoxyphenyl)-5-((4-methylpiperazinocarbamoyl)amino)indeno[1,2-c]pyrazol-4-one] yielded a melting point of more than 300 °C. The result for `COc1ccc(-c2[nH]nc3c2C(=O)c2c(NC(=O)CN4CCN(c5ccccn5)CC4)cccc2-3)cc1` [Example LXX, 3-(4-methoxyphenyl)-5-(4-(2-pyridyl)piperazinoacetamido)indeno[1,2-c]pyrazol-4-one] reads more than 300 °C; that for `COc1ccc(-c2[nH]nc3c2C(=O)c2c(NC(=O)CN4CCN(CCN)CC4)cccc2-3)cc1` [Example LXXI, 3-(4-methoxyphenyl)-5-(4-(aminoethyl)piperazinoacetamido)indeno[1,2-c]pyrazol-4-one], more than 300 °C; that for `COc1ccc(-c2[nH]nc3c2C(=O)c2c(NC(=O)CN4CCC(C(N)=O)CC4)cccc2-3)cc1` [Example LXXII, 3-(4-methoxyphenyl)-5-(4-carbamoylpiperidinoacetamido)indeno[1,2-c]pyrazol-4-one], more than 300 °C. The result for `COc1ccc(-c2[nH]nc3c2C(=O)c2c(NC(=O)CN4CCC(O)CC4)cccc2-3)cc1` [Example LXXIII, 3-(4-methoxyphenyl)-5-(4-hydroxypiperidinoacetamido)indeno[1,2-c]pyrazol-4-one] reads more than 300 °C; that for `CN1CCN(CC(=O)Nc2cccc3c2C(=O)c2c-3n[nH]c2-c2ccc(N(C)C)cc2)CC1` [Example LXXVIII, 3-(4-(dimethylamino)phenyl)-5-((4-methylpiperazino)acetamido)indeno[1,2-c]pyrazol-4-one], more than 300 °C.

For the origin of these results see US6407103B2, “Indeno [1,2-c] pyrazol-4-ones and their uses” (Bristol-Myers Squibb Pharma Company, priority 1998, dated 2002).
